Assays:
c-kit mutant D816V = c-kit mutant D816V (Homo sapiens (Human), UniProt P10721, D816V/DEL694-753); experiment: c-Kit mutant D816V biochemical assay (AlphaScreen kinase activity)
In short: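 Recombinant His-tagged c-Kit D816V kinase domain (residues 551-934, insert 694-753 deleted, E. coli-expressed) phosphorylating 30 nM biotin-(E4Y)10 with 10 μM ATP, HEPES pH 7.2, Mg/Mn, 5% DMSO; 30 min, room temperature. Phosphorylation detected by AlphaScreen (streptavidin donor/PY30 acceptor beads); IC50 from 8-point 1:3 series.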

[1] = system: BaF3-FL KIT D816V or BaF3-FL KIT V560G/D816V cell line; experiment: Cell-based assays of c-Kit mutant kinase activity (cell proliferation, ATPlite); details: at least one of the c-kit cell assays of Example 7
In short: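 BaF3 cells dependent on transfected full-length human KIT D816V or V560G/D816V (pCI-Neo, CMV promoter) were seeded at 1×10^4 cells/well and exposed to 8-point 1:3 dilutions from 10 μM top (0.2% DMSO) for three days at 37° C. ATPlite luminescence gave cell number; IC50 from concentration-response.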

Chain of c-kit mutant D816V (P10721 other isoform, or with tags, fused parts or gaps D816V/del 694-753): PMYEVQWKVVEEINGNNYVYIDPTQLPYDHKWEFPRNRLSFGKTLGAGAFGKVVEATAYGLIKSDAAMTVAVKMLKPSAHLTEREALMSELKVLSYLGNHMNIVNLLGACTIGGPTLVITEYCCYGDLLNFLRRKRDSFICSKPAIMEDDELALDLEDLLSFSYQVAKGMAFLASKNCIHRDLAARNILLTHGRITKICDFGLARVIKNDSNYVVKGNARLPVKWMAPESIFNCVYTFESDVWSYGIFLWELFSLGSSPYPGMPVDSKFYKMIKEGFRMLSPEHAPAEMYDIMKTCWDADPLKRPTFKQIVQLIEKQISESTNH

Row | Compound | IC50 (c-kit mutant D816V) | IC50 [1]
1 | Cc1nc(C2CCN(c3ncnc4[nH]c(-c5ccc(F)cc5)cc34)CC2)[nH]c1-c1ccc(F)cc1 [P-3006, 6-(4-fluorophenyl)-4-[4-[5-(4-fluorophenyl)-4-methyl-1H-imidazol-2-yl]-1-piperidyl]-7H-pyrrolo[2,3-d]pyrimidine] | 0.0001 to 1 µM | < 10 µM
2 | Cc1ccc(-c2[nH]c(C3CCN(c4ncnc5[nH]c(-c6ccc(C#N)cc6)cc45)CC3)nc2C)cc1 [P-3089, 4-[4-[4-[4-methyl-5-(p-tolyl)-1H-imidazol-2-yl]-1-piperidyl]-7H-pyrrolo[2,3-d]pyrimidin-6-yl]benzonitrile] | 0.0001 to 1 µM | < 10 µM
3 | Cc1ccc(-c2[nH]c(C3CCN(c4ncnc5[nH]c(-c6ccc(C#N)cc6)cc45)CC3)nc2C)s1 [P-3090, 4-[4-[4-[4-methyl-5-(5-methyl-2-thienyl)-1H-imidazol-2-yl]-1-piperidyl]-7H-pyrrolo[2,3-d]pyrimidin-6-yl]benzonitrile] | 0.0001 to 1 µM | < 10 µM
4 | COc1cc(-c2cc3c(N4CCC(c5nc(C)c(-c6ccc(OC(C)C)cc6)[nH]5)CC4)ncnc3[nH]2)ccn1 [P-3091, 4-[4-[5-(4-isopropoxyphenyl)-4-methyl-1H-imidazol-2-yl]-1-piperidyl]-6-(2-methoxy-4-pyridyl)-7H-pyrrolo[2,3-d]pyrimidine] | 0.0001 to 1 µM | < 10 µM
5 | Cc1nc(C2CCN(c3ncnc4[nH]c(-c5ccc(F)cc5)cc34)CC2)[nH]c1-c1ccc(OC(C)C)cc1 [P-3092, 6-(4-fluorophenyl)-4-[4-[5-(4-isopropoxyphenyl)-4-methyl-1H-imidazol-2-yl]-1-piperidyl]-7H-pyrrolo[2,3-d]pyrimidine] | 0.0001 to 1 µM | < 10 µM
6 | Cc1nc(C2CCN(c3ncnc4[nH]c(-c5ccc(C#N)cc5)cc34)CC2)[nH]c1-c1ccc(OC(C)C)cc1 [P-3093, 4-[4-[4-[5-(4-isopropoxyphenyl)-4-methyl-1H-imidazol-2-yl]-1-piperidyl]-7H-pyrrolo[2,3-d]pyrimidin-6-yl]benzonitrile] | 0.0001 to 1 µM | < 10 µM
7 | CCOc1cc(-c2[nH]c(C3CCN(c4ncnc5[nH]c(-c6ccc(F)cc6)cc45)CC3)nc2C)ccc1C [P-3094, 4-[4-[5-(3-ethoxy-4-methyl-phenyl)-4-methyl-1H-imidazol-2-yl]-1-piperidyl]-6-(4-fluorophenyl)-7H-pyrrolo[2,3-d]pyrimidine] | 0.0001 to 1 µM | < 10 µM
